In test [1] the target is T1, G-protein coupled receptor 35 (Homo sapiens, UniProt Q9HC97). The test can be described thus: SAR analysis of Agonists of the GPR35 Receptor using an Image-Based Assay - Set 2. [Related pubchem assays (depositor defined):AID2013, AID2026]. Type of test: functional.
Test [2] addresses T2, Cannabinoid receptor 2 (Homo sapiens, UniProt P34972). The test can be described thus: SAR analysis of antagonists of the Cannabinoid Receptor 2 using an Image-Based Assay. [Related pubchem assays (depositor defined):AID2013, AID2026]. Type of test: functional.
For test [3], the target named is T1, G-protein coupled receptor 35. The experiment in a line: SAR analysis of Antagonists of the GPR35 Receptor using an Image-Based Assay - Set 3. [Related pubchem assays (depositor defined):AID2013, AID2026]. Type of test: functional.
For test [4], the target named is T2, Cannabinoid receptor 2. The experiment in a line: SAR analysis of agonists of the Cannabinoid Receptor 2 using an Image-Based Assay. [Related pubchem assays (depositor defined):AID2013, AID2026]. Type of test: functional.
Test [5] has as its target T3, Heat shock factor protein 1 (Mus musculus, UniProt P38532).
T3 sequence (P38532 whole entry): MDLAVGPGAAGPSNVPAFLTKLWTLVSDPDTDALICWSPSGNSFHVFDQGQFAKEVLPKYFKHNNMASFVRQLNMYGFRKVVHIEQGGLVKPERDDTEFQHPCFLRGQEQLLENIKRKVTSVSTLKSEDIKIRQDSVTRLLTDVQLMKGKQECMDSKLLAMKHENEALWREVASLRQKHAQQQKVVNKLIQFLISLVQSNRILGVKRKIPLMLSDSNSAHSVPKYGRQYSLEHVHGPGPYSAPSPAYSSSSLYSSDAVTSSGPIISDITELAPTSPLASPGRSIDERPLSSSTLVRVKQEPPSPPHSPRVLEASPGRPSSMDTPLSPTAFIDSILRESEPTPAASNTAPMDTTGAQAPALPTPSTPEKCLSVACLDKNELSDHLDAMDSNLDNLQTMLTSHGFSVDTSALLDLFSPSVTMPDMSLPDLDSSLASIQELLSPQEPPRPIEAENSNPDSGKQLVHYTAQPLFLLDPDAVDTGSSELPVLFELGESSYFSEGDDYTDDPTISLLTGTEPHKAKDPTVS
The test can be described thus: decrease of HSF1-responsive luciferase luminescence – cell-based, NIH3T3, dose retest, confirmation (AID 2382).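 Also: NIH3T3 fibroblasts with HSF1-driven luciferase reporter stressed by proteasome inhibitor MG132; luminescence from HSF1-driven luciferase expression after 8 hours of MG132 stress.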 Type of test: functional.

Test [6] addresses T4, Cannabinoid receptor 1 (Homo sapiens, UniProt P21554). The test can be described thus: SAR analysis of antagonists of the Cannabinoid Receptor 1 using an Image-Based Assay - Set 2. [Related pubchem assays (depositor defined):AID2013, AID2026]. Type of test: functional.
The target in test [7] is T4, Cannabinoid receptor 1. The test can be described thus: SAR analysis of agonists of the Cannabinoid Receptor 1 using an Image-Based Assay - Set 2. [Related pubchem assays (depositor defined):AID2013, AID2026]. Type of test: functional.
In test [8] the target is T5, G-protein coupled receptor 55 (Homo sapiens, UniProt Q9Y2T6). The test can be described thus: inhibition of LPI-stimulated GPR55 beta-arrestin translocation – imaging, U2OS, beta-arrestin-GFP, LPI agonist, primary screen (AID 2013).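 Also: antagonist potency measured as reduced agonist-driven arrestin aggregation.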 Type of test: functional.
The target of test [9] is T5, G-protein coupled receptor 55. The test can be described thus: blockade of LPI-induced GPR55 arrestin translocation – imaging, U2OS, beta-arrestin-GFP, LPI agonist, set 2, SAR follow-up (AID 2820). Type of test: functional.
In test [10] the target is Guanyl-specific ribonuclease T1 (Aspergillus oryzae (strain ATCC 42149 / RIB 40), UniProt P00651). The test can be described thus: inhibition of ribonuclease T1 activity – biochemical, fluorescence polarization, 1536-well, counter-screen for TPT1 inhibitor project, dose response (AID 2167).
For test [11], the target named is T6, Tyrosine-protein phosphatase non-receptor type 7 (Homo sapiens, UniProt P35236).
T6 sequence (P35236 whole entry): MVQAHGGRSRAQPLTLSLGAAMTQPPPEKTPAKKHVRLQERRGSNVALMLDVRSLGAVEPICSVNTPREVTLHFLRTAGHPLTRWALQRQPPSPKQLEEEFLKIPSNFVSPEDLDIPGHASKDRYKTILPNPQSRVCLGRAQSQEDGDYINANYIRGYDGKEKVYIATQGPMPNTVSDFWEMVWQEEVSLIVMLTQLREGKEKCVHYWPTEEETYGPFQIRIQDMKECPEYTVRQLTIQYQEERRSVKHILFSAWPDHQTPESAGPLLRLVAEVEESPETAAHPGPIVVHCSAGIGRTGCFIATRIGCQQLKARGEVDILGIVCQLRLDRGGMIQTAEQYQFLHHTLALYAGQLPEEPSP
Type of test: functional.

Test [12] has as its target T7, Tyrosine-protein phosphatase non-receptor type 22 (Homo sapiens, UniProt Q9Y2R2).
T7 sequence (Q9Y2R2 whole entry): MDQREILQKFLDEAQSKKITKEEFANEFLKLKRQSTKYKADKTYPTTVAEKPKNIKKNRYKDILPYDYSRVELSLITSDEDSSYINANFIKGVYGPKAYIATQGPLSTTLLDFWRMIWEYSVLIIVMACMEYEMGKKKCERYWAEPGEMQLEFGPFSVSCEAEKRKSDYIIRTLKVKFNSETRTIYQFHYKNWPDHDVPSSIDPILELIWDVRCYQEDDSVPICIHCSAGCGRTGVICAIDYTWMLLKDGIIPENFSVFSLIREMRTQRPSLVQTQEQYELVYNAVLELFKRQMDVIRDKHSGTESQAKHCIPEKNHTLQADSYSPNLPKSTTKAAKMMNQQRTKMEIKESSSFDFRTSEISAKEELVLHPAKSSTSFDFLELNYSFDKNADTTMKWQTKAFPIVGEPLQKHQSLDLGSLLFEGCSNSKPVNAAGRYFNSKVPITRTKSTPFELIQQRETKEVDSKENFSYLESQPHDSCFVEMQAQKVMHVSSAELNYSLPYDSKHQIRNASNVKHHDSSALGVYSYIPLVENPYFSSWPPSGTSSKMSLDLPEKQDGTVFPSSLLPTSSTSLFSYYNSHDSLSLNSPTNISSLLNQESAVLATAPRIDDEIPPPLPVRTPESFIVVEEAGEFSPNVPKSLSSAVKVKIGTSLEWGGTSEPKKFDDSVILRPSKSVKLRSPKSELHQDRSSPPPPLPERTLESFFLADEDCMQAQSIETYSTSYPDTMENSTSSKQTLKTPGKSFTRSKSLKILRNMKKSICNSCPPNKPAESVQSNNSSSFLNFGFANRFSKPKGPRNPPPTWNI
Type of test: functional.

Test [13] has as its target T6, Tyrosine-protein phosphatase non-receptor type 7. The test can be described thus: HTS HePTP Fluorescent Assay using OMFP substrate for In Vitro dose response studies. [Related pubchem assays (depositor defined):AID1059, AID1077, AID1784, AID2068, AID2085, AID435032, AID521]. Type of test: functional.
Test [14] deals with Likely tRNA 2'-phosphotransferase (Candida albicans (strain SC5314 / ATCC MYA-2876) (Yeast), UniProt Q5A7N4). The test can be described thus: inhibition of Candida TPT1 enzyme activity – biochemical, fluorescence polarization, dose response (AID 2160). In general terms: Fluorescence polarisation rises when a labelled molecule tumbles more slowly, as on binding a larger partner.

Test [15] deals with Photoreceptor-specific nuclear receptor (Homo sapiens, UniProt Q9Y5X4). The experiment in a line: ligands suppressing NR2E3 nuclear receptor activity – biochemical, TR-FRET, dose response (AID 463256). Type of test: functional. (Time-resolved FRET reads energy transfer from a long-lived donor to a nearby acceptor.)
The target in test [16] is 72 kDa type IV collagenase (Homo sapiens, UniProt P08253). The experiment in a line: Dose Response validation of uHTS RPN11 inhibitor hits using a MMP-2 Fluorescence assay. Type of test: functional.
The target of test [17] is T7, Tyrosine-protein phosphatase non-receptor type 22. The experiment in a line: PTPN22 lymphoid phosphatase activity blockers – biochemical, fluorescence intensity, uHTS (AID 1779).
Test [18] deals with Peroxisome proliferator-activated receptor gamma/Nuclear receptor corepressor 2 (Homo sapiens, UniProt P37231+Q9Y618). The test can be described thus: Counterscreen for NR2E3 inverse agonists: TR-FRET-based biochemical high throughput dose response assay to identify inverse agonists of the interaction between peroxisome proliferator-activated receptor gamma (PPARg) and nuclear receptor co-repressor 2 (NCOR2). Type of test: functional. In general terms: The purpose of a counterscreen is to sort out artefacts and off-target activity.

The target of the next test is Prothrombin (Bos taurus, UniProt P00735). The experiment in a line: thrombin protease inhibitors – biochemical, fluorescence polarization, uHTS hits, dose response (AID 602369). Type of test: functional.
Test [19] addresses Serine/threonine-protein phosphatase PP1-alpha catalytic subunit (Homo sapiens, UniProt P62136). The experiment in a line: inhibition of protein phosphatase 1 activity – biochemical, fluorescence, dose response (AID 2403).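 Also: phosphatase turnover of OMFP into fluorescent 3-O-methylfluorescein.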
The target in another test is Major prion protein (Homo sapiens, UniProt P04156). Type of test: functional, cell-based.
The target in test [20] is T7, Tyrosine-protein phosphatase non-receptor type 22. Type of test: functional. The source holds these as a separate data set.
For test [21], the target named is 26S proteasome non-ATPase regulatory subunit 14 (Homo sapiens, UniProt O00487). The experiment in a line: inhibition of proteasome subunit RPN11 – biochemical, fluorescence polarization, uHTS hits, confirmation (AID 602368). Type of test: functional.
For test [22], the target named is T8, Serine/threonine-protein phosphatase (Homo sapiens, UniProt Q9BPW0).
T8 sequence (Q9BPW0 whole entry): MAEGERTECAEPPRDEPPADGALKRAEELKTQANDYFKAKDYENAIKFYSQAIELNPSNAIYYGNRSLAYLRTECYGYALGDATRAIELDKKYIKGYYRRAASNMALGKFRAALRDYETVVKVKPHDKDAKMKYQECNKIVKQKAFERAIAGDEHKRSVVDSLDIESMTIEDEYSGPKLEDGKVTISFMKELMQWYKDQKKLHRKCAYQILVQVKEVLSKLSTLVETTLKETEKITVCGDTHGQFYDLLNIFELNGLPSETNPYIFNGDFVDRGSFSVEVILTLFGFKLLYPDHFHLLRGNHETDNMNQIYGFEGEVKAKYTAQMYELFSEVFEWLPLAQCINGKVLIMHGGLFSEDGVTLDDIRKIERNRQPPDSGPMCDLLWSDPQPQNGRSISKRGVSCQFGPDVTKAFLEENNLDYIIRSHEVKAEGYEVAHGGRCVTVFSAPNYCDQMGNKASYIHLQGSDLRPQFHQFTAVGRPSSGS
The experiment in a line: Counterscreen for inhibitors of PP1: fluorescence-based biochemical high throughput dose response assay to identify inhibitors of Protein Phosphatase 5 (PP5). [Related pubchem assays: 2034 (Summary (PP5 inhibitors)), 1987 (PP5 inhibitors in singlate), 2235 (PP1 inhibitors in singlate)].

Test [23] addresses T7, Tyrosine-protein phosphatase non-receptor type 22. The experiment in a line: LYP1 Fluorescent Assay using OMFP substrate for In Vitro dose response studies. [Related pubchem assays (depositor defined):AID1779, AID1784, AID435024].
Test [24] deals with T4, Cannabinoid receptor 1. The test can be described thus: SAR analysis of antagonists of the Cannabinoid Receptor 1 using an Image-Based Assay. [Related pubchem assays (depositor defined):AID1961, AID1965]. Type of test: functional.
In test [25] the target is T2, Cannabinoid receptor 2. The experiment in a line: SAR analysis of agonists of the Cannabinoid Receptor 2 using an Image-Based Assay - Set 2. [Related pubchem assays (depositor defined):AID1961, AID1965]. Type of test: functional.
For test [26], the target named is T2, Cannabinoid receptor 2. The experiment in a line: SAR analysis of antagonists of the Cannabinoid Receptor 2 using an Image-Based Assay - Set 2. [Related pubchem assays (depositor defined):AID1961, AID1965]. Type of test: functional.
Test [27] addresses T5, G-protein coupled receptor 55. The test can be described thus: selective activators of receptor GPR55 – imaging, U2OS cells, beta-arrestin-GFP redistribution, primary screen (AID 1961). Type of test: functional.
Test [28] has the same target. The experiment in a line: SAR analysis of selective Agonists of GPR55 using an Image-Based Assay. [Related pubchem assays (depositor defined):AID1961, AID1965]. Type of test: functional.

SMILES strings stand for the structures. Activity calls are given as the source filed them.

One may read the EC50 as the concentration giving half of the maximal effect. A word on the IC50: it is the point on the concentration scale where inhibition reaches its midpoint.

As to `CCN1C(=O)C(c2ccc(O)cc2)(c2ccc(O)cc2)c2ccccc21`, the EC50 in test [1] is > 32 µM (inactive); at Cannabinoid receptor 2 [4], > 32 µM (inactive); in test [5], > 195 µM (not active); on Cannabinoid receptor 1 [7] it was > 32 µM (inactive). Also, the IC50 at Cannabinoid receptor 2 [2] was > 32 µM (inactive); in test [3] it was > 32 µM (inactive); on Cannabinoid receptor 1 [6] it was 22 µM (inactive); in test [8], 1.74 µM (active); in test [9], 0.506 µM (active).
Take `COc1ccc(Cl)cc1C(=O)Nc1cccc(-c2ccc3nncn3n2)c1`: the IC50 is 7.18 µM (active) in test [10]; 48.7 µM (active) in [11]; 38.5 µM (active) in test [12]; 37.9 µM (active) in test [13]; 5.93 µM (active) in test [14]; 2.86 µM (active) in test [15]. Also, the IC50 in the test “cells” is > 138 µM (inactive); in test [16], 8.37 µM (active); in test [17], 50.8 µM (active); in test [18], 5.06 µM (active); at Prothrombin it was 30.2 µM (active); in test [19] it was 6.56 µM (active). For the same compound, the IC50 on Major prion protein is 9.03 µM (active); in test [20], 16 µM (active); in test [21], 12 µM (active); in test [22], > 67 µM (not active); in [23], > 99 µM (inactive).
In the case of `CC(C)Oc1ccc(S(=O)(=O)N2CCOCC2)cc1NC(=O)c1ccc(N2CCCC2=O)cc1`, the IC50 on Cannabinoid receptor 1 [24] and on Cannabinoid receptor 2 [26] was > 32 µM (inactive) throughout. For the same compound, the figures for the EC50 (at Cannabinoid receptor 2 [25]; in test [27]; in [28]) were > 32 µM (inactive), 0.969 µM (active) and 0.88 µM (active), respectively.

The values are drawn from ChEMBL document CHEMBL1201862, “PubChem BioAssay data set” (2004).
